Test results reported in ChEMBL document CHEMBL1765025, “4-Aminothiazolyl analogues of GE2270 A: antibacterial lead finding” (2011).
≈ marks a conversion by molar mass, not a printed value.

Columns and labels:
Type in all cases: functional
Staphylococcus = experiment: Antibacterial activity against methicillin-resistant Staphylococcus
Enterococcus = experiment: Antibacterial activity against vancomycin-resistant Enterococcus
Enterococcus faecalis = experiment: Antibacterial activity against Enterococcus faecalis ATCC 29212 by CLSI M100-S19 method
Enterococcus faecium = experiment: Antibacterial activity against Enterococcus faecium by CLSI M100-S19 method
Staphylococcus aureus = experiment: Antibacterial activity against methicillin-resistant Staphylococcus aureus by CLSI M100-S19 method
Streptococcus pyogenes = experiment: Antibacterial activity against Streptococcus pyogenes ATCC BAA-595 by CLSI M100-S19 method

## CNC(=O)C[C@@H]1NC(=O)c2csc(n2)-c2ccc(-c3nc(C4=N[C@H](C(=O)N5CCC[C@H]5C(N)=O)CO4)cs3)nc2-c2csc(n2)-c2csc(n2)[C@H]([C@@H](O)c2ccccc2)NC(=O)CNC(=O)c2nc(sc2COC)[C@H](C(C)C)NC(=O)c2nc1sc2C
Staphylococcus
  MIC: 1 µg/mL (≈ 0.775 µM)
Enterococcus
  MIC: 1 µg/mL (≈ 0.775 µM)
Enterococcus faecalis
  MIC: 0.5 µg/mL (≈ 0.387 µM)
Enterococcus faecium
  MIC: 0.25 µg/mL (≈ 0.194 µM)
Staphylococcus aureus
  MIC: 0.25 µg/mL (≈ 0.194 µM)
Streptococcus pyogenes
  MIC: 1 µg/mL (≈ 0.775 µM)

## CNC(=O)C[C@@H]1NC(=O)c2csc(n2)-c2ccc(-c3nc(NC(C)=O)cs3)nc2-c2csc(n2)-c2csc(n2)[C@H]([C@@H](O)c2ccccc2)NC(=O)CNC(=O)c2nc(sc2COC)[C@H](C(C)C)NC(=O)c2nc1sc2C
Enterococcus faecalis
  MIC: 1 µg/mL (≈ 0.878 µM)
Enterococcus faecium
  MIC: 1 µg/mL (≈ 0.878 µM)
Staphylococcus aureus
  MIC: 2 µg/mL (≈ 1.76 µM)
Streptococcus pyogenes
  MIC: > 32 µg/mL

## CNC(=O)C[C@@H]1NC(=O)c2csc(n2)-c2ccc(-c3nc(NC(=O)OC(C)(C)C)cs3)nc2-c2csc(n2)-c2csc(n2)[C@H]([C@@H](O)c2ccccc2)NC(=O)CNC(=O)c2nc(sc2COC)[C@H](C(C)C)NC(=O)c2nc1sc2C
Enterococcus faecalis
  MIC: > 32 µg/mL
Enterococcus faecium
  MIC: > 32 µg/mL
Staphylococcus aureus
  MIC: > 32 µg/mL
Streptococcus pyogenes
  MIC: > 32 µg/mL

## CNC(=O)C[C@@H]1NC(=O)c2csc(n2)-c2ccc(-c3nc(NS(C)(=O)=O)cs3)nc2-c2csc(n2)-c2csc(n2)[C@H]([C@@H](O)c2ccccc2)NC(=O)CNC(=O)c2nc(sc2COC)[C@H](C(C)C)NC(=O)c2nc1sc2C
Enterococcus faecalis
  MIC: 2 µg/mL (≈ 1.7 µM)
Enterococcus faecium
  MIC: 4 µg/mL (≈ 3.41 µM)
Staphylococcus aureus
  MIC: 2 µg/mL (≈ 1.7 µM)
Streptococcus pyogenes
  MIC: > 32 µg/mL

## CNC(=O)C[C@@H]1NC(=O)c2csc(n2)-c2ccc(C(N)=O)nc2-c2csc(n2)-c2csc(n2)[C@H]([C@@H](O)c2ccccc2)NC(=O)CNC(=O)c2nc(sc2COC)[C@H](C(C)C)NC(=O)c2nc1sc2C
Enterococcus faecalis
  MIC: 32 µg/mL (≈ 30.7 µM)
Enterococcus faecium
  MIC: > 32 µg/mL
Staphylococcus aureus
  MIC: > 32 µg/mL
Streptococcus pyogenes
  MIC: > 32 µg/mL
